Columns and labels:
[1] = system: HIV-1BAL; assay: PHA-PBMC assay, p24 Gag protein production; type: cell-based
[2] = system: HIV-1LAI; assay: PHA-PBMC assay, p24 Gag protein production; type: cell-based; conditions: HIV-1LAI
[3] = system: multidrug-resistant HIV-1 clinical isolate, patient 4; assay: PHA-PBMC assay, p24 Gag protein production; type: cell-based; conditions: Human immunodeficiency virus 1; Patient/Isolate code 4; PHA-PBMC, p24
Experimental: (§1) The patient profiles are shown below in Table 2.
(§2) To determine protease inhibitory activity against multidrug resistant HIV, the IC50's were measured against a panel of clinically isolated mutant HIV isolates.
(§3) All drug sensitivities were performed in triplicate. In order to determine whether the HIV isolates were syncitium inducing (SI) or non-syncitium inducing (NSI), an aliquot of viral stock supernatant, containing 100 TCID50, was cultured with 1×10^5 MT-2 cells in a 12-well plate. Cultures were maintained for four weeks and were examined for syncytium formation twice a week.

[4] = system: multidrug-resistant HIV-1 clinical isolate, patient 3; assay: PHA-PBMC assay, p24 Gag protein production; type: cell-based; conditions: Human immunodeficiency virus 1; Patient/Isolate code 3; PHA-PBMC, p24
Experimental: as §1, §2, §3

[5] = system: multidrug-resistant HIV-1 clinical isolate, patient 6; assay: PHA-PBMC assay, p24 Gag protein production; type: cell-based; conditions: Human immunodeficiency virus 1; Patient/Isolate code 6; PHA-PBMC, p24
Experimental: as §1, §2, §3

[6] = system: HIV-1ERS104pre; assay: PHA-PBMC assay, p24 Gag protein production; type: cell-based; conditions: Human immunodeficiency virus 1; HIV-1ERS104pre, SI; PHA-PBMC, p24
Experimental: as §1, §2, §3

[7] = system: multidrug-resistant HIV-1 clinical isolate, patient 5; assay: PHA-PBMC assay, p24 Gag protein production; type: cell-based; conditions: Human immunodeficiency virus 1; Patient/Isolate code 5; PHA-PBMC, p24
Experimental: as §1, §2, §3

[8] = system: multidrug-resistant HIV-1 clinical isolate, patient 1; assay: PHA-PBMC assay, p24 Gag protein production; type: cell-based; conditions: Human immunodeficiency virus 1; Patient/Isolate code 1; PHA-PBMC, p24
Experimental: as §1, §2, §3

[9] = system: multidrug-resistant HIV-1 clinical isolate, patient 2; assay: PHA-PBMC assay, p24 Gag protein production; type: cell-based; conditions: Human immunodeficiency virus 1; Patient/Isolate code 2; PHA-PBMC, p24
Experimental: as §1, §2, §3

[10] = system: multidrug-resistant HIV-1 clinical isolate, patient 7; assay: PHA-PBMC assay, p24 Gag protein production; type: cell-based; conditions: Human immunodeficiency virus 1; Patient/Isolate code 7; PHA-PBMC, p24
Experimental: as §1, §2, §3

[11] = system: multidrug-resistant HIV-1 clinical isolate, patient 8; assay: PHA-PBMC assay, p24 Gag protein production; type: cell-based; conditions: Human immunodeficiency virus 1; Patient/Isolate code 8; PHA-PBMC, p24
Experimental: as §1, §2, §3

[12] = system: multidrug-resistant HIV-1 clinical isolate, patient 20; assay: microbe, parasite or virus in culture; type: cell-based; conditions: Human immunodeficiency virus 1; Patient Isolate 20
Experimental: (§4) The mutant multidrug-resistant HIV-1 strains corresponding to each patient, numbered 9-35, were genetically analyzed in terms of the nucleic acid sequences of the protease (PR) and a portion of the reverse transcriptase (RT) genes from which mutations in these enzymes were determined. The mutations in the protease and reverse transcriptase of the multidrug-resistant viruses isolated from each patient are shown below in Table 9b.

[13] = system: multidrug-resistant HIV-1 clinical isolate, patient 32; assay: microbe, parasite or virus in culture; type: cell-based; conditions: Human immunodeficiency virus 1; Patient Isolate 32
Experimental: as §4

[14] = system: multidrug-resistant HIV-1 clinical isolate, patient 15; assay: microbe, parasite or virus in culture; type: cell-based; conditions: Human immunodeficiency virus 1; Patient Isolate 15
Experimental: as §4

[15] = system: multidrug-resistant HIV-1 clinical isolate, patient 14; assay: microbe, parasite or virus in culture; type: cell-based; conditions: Human immunodeficiency virus 1; Patient Isolate 14
Experimental: as §4

[16] = system: multidrug-resistant HIV-1 clinical isolate, patient 19; assay: microbe, parasite or virus in culture; type: cell-based; conditions: Human immunodeficiency virus 1; Patient Isolate 19
Experimental: as §4

[17] = system: multidrug-resistant HIV-1 clinical isolate, patient 9; assay: microbe, parasite or virus in culture; type: cell-based; conditions: Human immunodeficiency virus 1; Patient Isolate 9
Experimental: as §4

[18] = system: multidrug-resistant HIV-1 clinical isolate, patient 29; assay: microbe, parasite or virus in culture; type: cell-based; conditions: Human immunodeficiency virus 1; Patient Isolate 29
Experimental: as §4

[19] = system: multidrug-resistant HIV-1 clinical isolate, patient 27; assay: microbe, parasite or virus in culture; type: cell-based; conditions: Human immunodeficiency virus 1; Patient Isolate 27
Experimental: as §4

[20] = system: multidrug-resistant HIV-1 clinical isolate, patient 11; assay: microbe, parasite or virus in culture; type: cell-based; conditions: Human immunodeficiency virus 1; Patient Isolate 11
Experimental: as §4

[21] = system: multidrug-resistant HIV-1 clinical isolate, patient 31; assay: microbe, parasite or virus in culture; type: cell-based; conditions: Human immunodeficiency virus 1; Patient Isolate 31
Experimental: as §4

[22] = system: multidrug-resistant HIV-1 clinical isolate, patient 13; assay: microbe, parasite or virus in culture; type: cell-based; conditions: Human immunodeficiency virus 1; Patient Isolate 13
Experimental: as §4

[23] = system: multidrug-resistant HIV-1 clinical isolate, patient 23; assay: microbe, parasite or virus in culture; type: cell-based; conditions: Human immunodeficiency virus 1; Patient Isolate 23
Experimental: as §4

[24] = system: multidrug-resistant HIV-1 clinical isolate, patient 35; assay: microbe, parasite or virus in culture; type: cell-based; conditions: Human immunodeficiency virus 1; Patient Isolate 35
Experimental: as §4

[25] = system: multidrug-resistant HIV-1 clinical isolate, patient 10; assay: microbe, parasite or virus in culture; type: cell-based; conditions: Human immunodeficiency virus 1; Patient Isolate 10
Experimental: as §4

[26] = system: multidrug-resistant HIV-1 clinical isolate, patient 17; assay: microbe, parasite or virus in culture; type: cell-based; conditions: Human immunodeficiency virus 1; Patient Isolate 17
Experimental: as §4

[27] = system: multidrug-resistant HIV-1 clinical isolate, patient 18; assay: microbe, parasite or virus in culture; type: cell-based; conditions: Human immunodeficiency virus 1; Patient Isolate 18
Experimental: as §4

[28] = system: multidrug-resistant HIV-1 clinical isolate, patient 16; assay: microbe, parasite or virus in culture; type: cell-based; conditions: Human immunodeficiency virus 1; Patient Isolate 16
Experimental: as §4

[29] = system: multidrug-resistant HIV-1 clinical isolate, patient 12; assay: microbe, parasite or virus in culture; type: cell-based; conditions: Human immunodeficiency virus 1; Patient Isolate 12
Experimental: as §4

[30] = system: multidrug-resistant HIV-1 clinical isolate, patient 33; assay: microbe, parasite or virus in culture; type: cell-based; conditions: Human immunodeficiency virus 1; Patient Isolate 33
Experimental: as §4

[31] = system: multidrug-resistant HIV-1 clinical isolate, patient 30; assay: microbe, parasite or virus in culture; type: cell-based; conditions: Human immunodeficiency virus 1; Patient Isolate 30
Experimental: as §4

[32] = system: multidrug-resistant HIV-1 clinical isolate, patient 28; assay: microbe, parasite or virus in culture; type: cell-based; conditions: Human immunodeficiency virus 1; Patient Isolate 28
Experimental: as §4

[33] = system: wild-type HIV-1 (WT); assay: IC50 against wild-type HIV-1 (Table 9a); type: cell-based; conditions: Human immunodeficiency virus 1; (WT)
[34] = system: multidrug-resistant HIV-1 clinical isolate, patient 34; assay: IC50 against multidrug-resistant clinical isolates (Table 9a); type: cell-based; conditions: Human immunodeficiency virus 1
Experimental: as §4

[35] = system: multidrug-resistant HIV-1 clinical isolate, patient 22; assay: as above; type: cell-based; conditions: Human immunodeficiency virus 1
Experimental: as §4

[36] = target: T1, wild-type HIV-1 (WT) protease (Human immunodeficiency virus type 1 group M subtype B, UniProt P04585); assay: continuous fluorogenic HIV protease assay; type: biochemical; conditions: WT (Table 7)
T1 construct: the proteases of wild-type HIV-1 (WT)
Experimental: This example describes the protocol for the sensitive continuous fluorogenic assay for HIV protease of the present invention and its application. […] The inhibition constant for wild-type HIV-1, Kimnt/Kiwt ratio, and vitality were measured.
The reaction was initiated by the addition of 5 μl of substrate stock solution in water. […] The initial rate of hydrolysis was calculated by second degree polynomial fit using SLM AB2 2.0 operating software.
For inhibition studies, inhibitors were prepared as stock solutions at different concentrations in dimethylsulfoxide. […] The reaction was initiated by the addition of 5 μl of substrate stock solution in water. For data analysis, the mathematical model for tight-binding inhibitors was used.

[37] = system: HIV-1LAI; assay: MT-2 cells, MTT assay; type: cell-based; conditions: HIV-1LAI; MT-2/MTT, day 7
Experimental: All drug sensitivities were performed in triplicate. […] The IC50's were determined using the MTT assay on day 7 of culture. All sensitivities were determined in […].

[38] = system: HIV; assay: influence of human protein binding on antiviral activity; type: cell-based
Text: These failures have been ascribed, but not definitively proven, to be due to excessive binding to human plasma proteins, particularly serum albumin and AAG.

[39] = system: multidrug-resistant HIV-1 clinical isolate, patient 21; assay: microbe, parasite or virus in culture; type: cell-based; conditions: Human immunodeficiency virus 1; Patient Isolate 21
Experimental: as §4

[40] = Human immunodeficiency virus 1, HIV-1BAL, NSI, PHA-PBMC, p24 (Table 3)
[41] = Human immunodeficiency virus 1, SI, PHA-PBMC, p24 (Table 3)

| Structure (SMILES) | IC50 [1, 40] [nM] | IC50 [2, 41] [nM] | IC50 [3] [nM] | IC50 [4] [nM] | IC50 [5] [nM] | IC50 [6] [nM] | IC50 [7] [nM] | IC50 [8] [nM] | IC50 [9] [nM] | IC50 [10] [nM] | IC50 [11] [nM] | IC50 [12] [nM] | IC50 [13] [nM] | IC50 [14] [nM] | IC50 [15] [nM] | IC50 [16] [nM] | IC50 [17] [nM] | IC50 [18] [nM] | IC50 [19] [nM] | IC50 [20] [nM] | other results |
| --- | --- | --- | --- | --- | --- | --- | --- | --- | --- | --- | --- | --- | --- | --- | --- | --- | --- | --- | --- | --- | --- |
| CC(C)(C)NC(=O)[C@@H]1CN(Cc2cccnc2)CCN1C[C@@H](O)C[C@@H](Cc1ccccc1)C(=O)N[C@H]1c2ccccc2C[C@H]1O [IDV, Indinavir] | 5.6 | 19 | 240 | 460 | 370 | 13 | 800 | > 1000 | 240 | > 1000 | > 1000 | 591 | 223 | 265 | 89 | 784 | 1090 | 569 | > 1250 | 12 | IC50 [21]: 251 nM; IC50 [22]: > 1250 nM; IC50 [23]: 461 nM; IC50 [24]: 509 nM; IC50 [25]: > 1250 nM; IC50 [26]: 502 nM; IC50 [27]: 369 nM; IC50 [28]: 384 nM; IC50 [29]: > 1250 nM; IC50 [30]: 133 nM; IC50 [31]: 270 nM; IC50 [32]: 1040 nM; IC50 [33]: 20 nM; IC50 [34]: 595 nM; IC50 [35]: 173 nM |
| CC(C)CN(C[C@@H](O)[C@H](Cc1ccccc1)NC(=O)O[C@H]1CO[C@H]2OCC[C@H]21)S(=O)(=O)c1ccc(CN)cc1 [Compound 35] |  |  |  |  |  |  |  |  |  |  |  |  |  |  |  |  |  |  |  |  | IC50 ([1]; HIV-1Ba-L, PBMC/p24, day 7 (Table 8)): 13 nM; IC50 ([2]; PBMC/p24, day 7 (Table 8)): 20 nM; KI-wt/KI-mut [36]: 1; Ki [36]: 0.081 nM; IC50 [37]: 28 nM |
| CC(C)CN(C[C@@H](O)[C@H](Cc1ccccc1)NC(=O)O[C@H]1CCOC1)S(=O)(=O)c1ccc(N)cc1 [AMV, Amprenavir] | 14 | 19 | 400 | 330 | 110 | 21 | 280 | 290 | 240 | 420 | 220 |  |  |  |  |  |  |  |  |  | fold of IC50 relative to (−) ([38]; (−), no added protein): 1 ×; fold of IC50 relative to (−) ([38]; Alb: human serum albumin (HAS, 300 μM)): 1 ×; IC50 ([38]; Human immunodeficiency virus 1, (−), no added protein): 29 nM; IC50 ([38]; Human immunodeficiency virus 1, Alb: human serum albumin (HAS, 300 μM)): 21 nM; IC50 ([38]; Human immunodeficiency virus 1, human alpha acid glycoprotein (AAG, 10 μM)): 180 nM; fold of IC50 relative to (−) ([38]; human alpha acid glycoprotein (AAG, 10 μM)): 6 × |
| CC(C)(C)NC(=O)[C@@H]1C[C@@H]2CCCC[C@@H]2CN1C[C@@H](O)[C@H](Cc1ccccc1)NC(=O)[C@H](CC(N)=O)NC(=O)c1ccc2ccccc2n1 [SAQ, Saquinavir] | 3.7 | 5.4 | 33 | 36 | 190 | 10 | 240 | 290 | 35 | 120 | 9 | 32 | > 312 | > 312 | 40 | 55 | > 312 | 50 | > 312 | 1 | IC50 [21]: 74 nM; IC50 [22]: > 312 nM; IC50 [23]: 8 nM; IC50 [24]: 61.6 nM; IC50 [25]: > 312 nM; IC50 [39]: 210 nM; IC50 [26]: 107 nM; IC50 [27]: 39 nM; IC50 [28]: > 312 nM; IC50 [29]: > 312 nM; IC50 [30]: 59 nM; IC50 [31]: 191 nM; IC50 [32]: > 312 nM; IC50 [33]: 7 nM; IC50 [34]: 63 nM; IC50 [35]: 3 nM |

Source: US9889115B2, “Fitness assay and associated methods” (priority 1998, dated 2018)
